Laboratory results as given in patent publication US11208400B2, “Substituted 6-(1H-pyrazol-1-yl)pyrimidin-4-amine derivatives and uses thereof” (Bayer Aktiengesellschaft, priority 2016, dated 2021).
Counter-ions that a name gives are not always drawn.

What follows are compounds tested against T1, human Npt2a (Homo sapiens, UniProt Q06495) (assay: Npt2a activity cell based assay, membrane potential dye, CHO T-REx hNpt2a cells). Details: doxycycline-induced, depolarization by sodium phosphate influx, average or median values if tested more than once.
T1 construct: expressed in transfected cells
T1 sequence (Q06495 1-639): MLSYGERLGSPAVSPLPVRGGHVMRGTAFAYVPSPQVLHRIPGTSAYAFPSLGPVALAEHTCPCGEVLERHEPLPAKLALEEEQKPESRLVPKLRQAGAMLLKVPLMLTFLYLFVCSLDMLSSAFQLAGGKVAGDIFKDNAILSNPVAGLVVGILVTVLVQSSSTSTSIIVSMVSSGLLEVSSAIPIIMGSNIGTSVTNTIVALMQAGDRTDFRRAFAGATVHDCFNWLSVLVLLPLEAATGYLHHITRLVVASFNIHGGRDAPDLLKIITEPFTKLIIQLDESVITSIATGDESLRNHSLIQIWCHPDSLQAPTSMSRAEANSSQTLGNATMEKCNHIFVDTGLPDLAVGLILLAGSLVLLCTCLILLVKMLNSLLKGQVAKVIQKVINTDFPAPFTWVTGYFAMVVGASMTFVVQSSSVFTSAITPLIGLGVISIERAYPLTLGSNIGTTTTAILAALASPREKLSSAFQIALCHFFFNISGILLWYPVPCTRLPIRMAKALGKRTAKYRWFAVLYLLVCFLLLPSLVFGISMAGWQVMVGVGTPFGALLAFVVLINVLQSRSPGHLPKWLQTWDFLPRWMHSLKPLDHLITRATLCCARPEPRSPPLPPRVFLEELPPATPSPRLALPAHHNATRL
Procedure, shortened: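 Cells were doxycycline-induced CHO T-REx hNpt2a, dye-loaded and pretreated 5 min at RT with 1 nM–50 μM compound in Na-free pH 7.4 buffer. IC50 was fit to the post/pre-trigger fluorescence ratio.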
Cc1cc(C)n(-c2cc(Nc3c(C)c(-c4ccc(OC(F)F)cc4)nn3CC3CC3)ncn2)n1 [Example 476, N-{1-(cyclopropylmethyl)-3-[4-(difluoromethoxy)phenyl]-4-methyl-1H-pyrazol-5-yl}-6-(3,5-dimethyl-1H-pyrazol-1-yl)pyrimidin-4-amine] showed an IC50 of 29 nM.
Compound COC(=O)Oc1c(C)nn(-c2cc(Nc3c(C)c(-c4ccc(F)cc4)nn3CC3CC3)ncn2)c1C [Example 518, 1-(6-{[1-(cyclopropylmethyl)-3-(4-fluorophenyl)-4-methyl-1H-pyrazol-5-yl]amino}pyrimidin-4-yl)-3,5-dimethyl-1H-pyrazol-4-yl methyl carbonate] has an IC50 of 14 nM.
Compound Cc1nn(-c2cc(Nc3c(C)c(-c4ccc(F)cc4)nn3CC3CC3)ncn2)c(C)c1C(C)(C)O [Example 159, 2-[1-(6-{[1-(cyclopropylmethyl)-3-(4-fluorophenyl)-4-methyl-1H-pyrazol-5-yl]amino}pyrimidin-4-yl)-3,5-dimethyl-1H-pyrazol-4-yl]propan-2-ol] has an IC50 of 8 nM.
With CCc1c(Nc2cc(-n3nc(C)c(C(=O)N(C)C)c3C)ncn2)nn(C)c1-c1ccc(F)cc1 [Example 127, 1-(6-{[4-ethyl-5-(4-fluorophenyl)-1-methyl-1H-pyrazol-3-yl]amino}pyrimidin-4-yl)-N,N,3,5-tetramethyl-1H-pyrazole-4-carboxamide] the IC50 was 1200 nM.
With Cc1nn(-c2cc(Nc3c(C)nn(-c4ccc(F)cc4)c3C)ncn2)c(C)c1Cl [Example 63, 6-(4-chloro-3,5-dimethyl-1H-pyrazol-1-yl)-N-[1-(4-fluorophenyl)-3,5-dimethyl-1H-pyrazol-4-yl]pyrimidin-4-amine] the IC50 was 7.65 nM.
Work on Cc1ccc(-c2nn(C)c(Nc3cc(-n4nc(C)c(C(F)(F)F)c4C)ncn3)c2C)cn1 [Example 530, N-[1,4-dimethyl-3-(6-methylpyridin-3-yl)-1H-pyrazol-5-yl]-6-[3,5-dimethyl-4-(trifluoromethyl)-1H-pyrazol-1-yl]pyrimidin-4-amine] yielded an IC50 of 33 nM.
In the case of Cc1nn(-c2cc(Nc3c(C)c(C45C6C7C4C4C5C6C74C#N)nn3CC3CC3)ncn2)c(C)c1Cl (stereo not drawn) [Example 513, 4-[5-{[6-(4-chloro-3,5-dimethyl-1H-pyrazol-1-yl)pyrimidin-4-yl]amino}-1-(cyclopropylmethyl)-4-methyl-1H-pyrazol-3-yl]cubane-1-carbonitrile], the IC50 is reported as 7 nM.
CCc1nn(C)c(Nc2cc(-n3nc(C)cc3C)ncn2)c1-c1ccc(F)cc1 [Example 35, 6-(3,5-dimethyl-1H-pyrazol-1-yl)-N-[3-ethyl-4-(4-fluorophenyl)-1-methyl-1H-pyrazol-5-yl]pyrimidin-4-amine] gave an IC50 of 1400 nM.
With CCNc1c(C)nn(-c2cc(Nc3c(C)c(-c4ccc(F)cc4)nn3CC3CC3)ncn2)c1C [Example 501, N-[1-(cyclopropylmethyl)-3-(4-fluorophenyl)-4-methyl-1H-pyrazol-5-yl]-6-[4-(ethylamino)-3,5-dimethyl-1H-pyrazol-1-yl]pyrimidin-4-amine trifluoroacetate] the IC50 was 5 nM.
Compound Cc1cc(C)n(-c2cc(Nc3c(C)c(-c4ccc(C5CN(C(=O)OC(C)(C)C)C5)cc4)nn3C)ncn2)n1 [Example 323, tert-butyl 3-[4-(5-{[6-(3,5-dimethyl-1H-pyrazol-1-yl)pyrimidin-4-yl]amino}-1,4-dimethyl-1H-pyrazol-3-yl)phenyl]azetidine-1-carboxylate] has an IC50 of 660 nM.
Work on CSc1c(C)nn(-c2cc(Nc3c(C)c(-c4ccc(F)cc4)nn3CC3CC3)ncn2)c1C [Example 399, N-[1-(cyclopropylmethyl)-3-(4-fluorophenyl)-4-methyl-1H-pyrazol-5-yl]-6-[3,5-dimethyl-4-(methylsulfanyl)-1H-pyrazol-1-yl]pyrimidin-4-amine] yielded an IC50 of 6 nM.
Compound Cc1nn(-c2cc(Nc3nn(C)c(-c4ccc(F)cc4)c3Cl)ncn2)c(C)c1C1(O)CC1 [Example 357, 1-[1-(6-{[4-chloro-5-(4-fluorophenyl)-1-methyl-1H-pyrazol-3-yl]amino}pyrimidin-4-yl)-3,5-dimethyl-1H-pyrazol-4-yl]cyclopropanol] has an IC50 of 32 nM.
In the case of COc1c(-c2ccc(C#N)cc2)nn(CC2CC2)c1Nc1cc(-n2nc(C)c(C(C)O)c2C)ncn1 (single isomer, unassigned) [Example 332, 4-{1-(cyclopropylmethyl)-5-[(6-{4-[1-hydroxyethyl]-3,5-dimethyl-1H-pyrazol-1-yl}pyrimidin-4-yl)amino]-4-methoxy-1H-pyrazol-3-yl}benzonitrile], the IC50 is reported as 1900 nM.
For Cc1nn(-c2cc(Nc3nn(CC(F)F)c(-c4ccc(F)cc4)c3Cl)ncn2)c(C)c1Cl [Example 130, N-[4-chloro-1-(2,2-difluoroethyl)-5-(4-fluorophenyl)-1H-pyrazol-3-yl]-6-(4-chloro-3,5-dimethyl-1H-pyrazol-1-yl)pyrimidin-4-amine], the IC50 was 28 nM.
Cc1nn(-c2cc(Nc3nn(C)c(-c4ccc(F)cc4F)c3Cl)ncn2)c(C)c1Cl [Example 56, N-[4-chloro-5-(2,4-difluorophenyl)-1-methyl-1H-pyrazol-3-yl]-6-(4-chloro-3,5-dimethyl-1H-pyrazol-1-yl)pyrimidin-4-amine] was tested, and the IC50 was 20.5 nM.
Work on CCOC(=O)c1c(C)nn(-c2cc(Nc3nn(CC4CC4)c(-c4ccc(F)cc4)c3C)ncn2)c1C [Example 151, ethyl 1-(6-{[1-(cyclopropylmethyl)-5-(4-fluorophenyl)-4-methyl-1H-pyrazol-3-yl]amino}pyrimidin-4-yl)-3,5-dimethyl-1H-pyrazole-4-carboxylate] yielded an IC50 of 390 nM.
Cc1nn(-c2cc(Nc3c(C)c(-c4ccc(C#N)cc4)nn3C)ncn2)c(C)c1C(F)(F)F [Example 547, 4-[5-({6-[3,5-dimethyl-4-(trifluoromethyl)-1H-pyrazol-1-yl]pyrimidin-4-yl}amino)-1,4-dimethyl-1H-pyrazol-3-yl]benzonitrile] gave an IC50 of 29 nM.
With Cc1cc(C)n(-c2cc(Nc3n[nH]c(-c4ccc(F)cc4)c3C)ncn2)n1 [Example 17, 6-(3,5-dimethyl-1H-pyrazol-1-yl)-N-[5-(4-fluorophenyl)-4-methyl-1H-pyrazol-3-yl]pyrimidin-4-amine] the IC50 was 100 nM.
CCc1c(-c2ccc(F)cc2)nn(C)c1Nc1cc(-n2nc(C)c(-c3nnc(C)o3)c2C)ncn1 [Example 226, 6-[3,5-dimethyl-4-(5-methyl-1,3,4-oxadiazol-2-yl)-1H-pyrazol-1-yl]-N-[4-ethyl-3-(4-fluorophenyl)-1-methyl-1H-pyrazol-5-yl]pyrimidin-4-amine] gave an IC50 of 190 nM.
With CCOC(=O)Cc1c(C)nn(-c2cc(Nc3nn(C)c(-c4ccc(C#N)cc4)c3OC)ncn2)c1C [Example 492, ethyl [1-(6-{[5-(4-cyanophenyl)-4-methoxy-1-methyl-1H-pyrazol-3-yl]amino}pyrimidin-4-yl)-3,5-dimethyl-1H-pyrazol-4-yl]acetate] the IC50 was 13 nM.
For Cc1nn(-c2cc(Nc3c(C)c(-c4ccc(F)cc4)nn3CC3CC3)ncn2)c(C)c1CN1CC(F)(F)C1 [Example 390, N-[1-(cyclopropylmethyl)-3-(4-fluorophenyl)-4-methyl-1H-pyrazol-5-yl]-6-{4-[(3,3-difluoroazetidin-1-yl)methyl]-3,5-dimethyl-1H-pyrazol-1-yl}pyrimidin-4-amine], the IC50 was 25 nM.
Cc1cc(C)n(-c2cc(Nc3c(Cl)c(-c4ccc(F)cc4)nn3C)ncn2)n1 [Example 90, N-[4-chloro-3-(4-fluorophenyl)-1-methyl-1H-pyrazol-5-yl]-6-(3,5-dimethyl-1H-pyrazol-1-yl)pyrimidin-4-amine] gave an IC50 of 133 nM.
COCCc1c(Nc2cc(-n3nc(C)cc3C)ncn2)n[nH]c1-c1ccc(F)cc1 [Example 38, 6-(3,5-dimethyl-1H-pyrazol-1-yl)-N-[5-(4-fluorophenyl)-4-(2-methoxyethyl)-1H-pyrazol-3-yl]pyrimidin-4-amine] was tested, and the IC50 was 2350 nM.
In the case of Cc1cc(C(F)F)n(-c2cc(Nc3nn(CC(F)F)c(-c4ccc(C#N)cc4)c3C)ncn2)n1 [Example 251, 4-[1-(2,2-difluoroethyl)-3-({6-[5-(difluoromethyl)-3-methyl-1H-pyrazol-1-yl]pyrimidin-4-yl}amino)-4-methyl-1H-pyrazol-5-yl]benzonitrile], the IC50 is reported as 14 nM.
Compound COc1c(C)nn(-c2cc(Nc3c(C)c(-c4ccc(F)cc4)nn3C)ncn2)c1C [Example 437, N-[3-(4-fluorophenyl)-1,4-dimethyl-1H-pyrazol-5-yl]-6-(4-methoxy-3,5-dimethyl-1H-pyrazol-1-yl)pyrimidin-4-amine] has an IC50 of 21 nM.
Work on Cc1nn(-c2cc(Nc3c(Cl)c(-c4ccc(F)cc4)nn3C)ncn2)c2ccccc12 [Example 100, N-[4-chloro-3-(4-fluorophenyl)-1-methyl-1H-pyrazol-5-yl]-6-(3-methyl-1H-indazol-1-yl)pyrimidin-4-amine] yielded an IC50 of 360 nM.
CCc1c(-c2ccc(C#N)cc2)nn(CC2CC2)c1Nc1cc(-n2nc(C)c(Cl)c2C)ncn1 [Example 157, 4-[5-{[6-(4-chloro-3,5-dimethyl-1H-pyrazol-1-yl)pyrimidin-4-yl]amino}-1-(cyclopropylmethyl)-4-ethyl-1H-pyrazol-3-yl]benzonitrile] gave an IC50 of 6 nM.
